For one compound, inhibition results are on record in PMC6934184, “Selective DNA-PKcs inhibition extends the therapeutic index of localized radiotherapy and chemotherapy” (The Journal of Clinical Investigation, 2019).

This assay deals with T1, KIT N822K (Homo sapiens, UniProt P10721, N822K).
T1 construct: purchased Thermo Fisher Scientific (Life Technologies) SelectScreen
Briefly: SelectScreen LanthaScreen. The class given is binding. To be noted: read-out: % displacement. The procedure: The in vitro kinase selectivity of NU5455 was determined using the SelectScreen Broad Assay Panel (Thermo Fisher Scientific) involving activity and binding assays (Supplemental Table 1). […] Class IA PI3Ks were measured using the p85α subunit.
Kinase [ATP] % Assay Kinase [ATP] % Assay Kinase [ATP] % Assay Kinase [ATP] % Assay […]
FLT3 Km app 9.1 Z HIPK1 (Myak) Km app 2.8 Z KIT N822K n/a -0.2 L EPHB4 Km app -5.3 Z […]
SGK (SGK1) Km app 8.5 Z MAP4K2 (GCK) Km app 2.7 Z TLK2 n/a -0.3 L STK38 (NDR) n/a -5.9 L
MERTK (cMER) Km app 8.3 Z CDK2/cyclin A Km app 2.7 Z TGFBR1 (ALK5) n/a -0.4 L MATK (HYL) Km app -6.3 Z
FYN Km app 8.3 Z EPHA1 Km app 2.7 Z CLK3 Km app -0.5 Z ABL1 E255K Km app -6.6 Z
TEC n/a 8.1 L CDK2/cyclin E1 n/a 2.7 L MAP3K14 (NIK) n/a -0.5 L STK17A (DRAK1) n/a -6.6 L
KIT V654A n/a 8.1 L TESK2 n/a 2.7 L AKT3 (PKB gamma) Km app -0.5 Z JAK2 JH1 JH2 Km app -6.7 Z
ROS1 Km app 8.0 Z SPHK1 Km app 2.7 A MAP3K9 (MLK1) Km app -0.5 Z PRKACB (PRKAC beta) n/a -6.8 L
FGFR3 K650E Km app 7.9 Z AMPK A2/B1/G1 Km app 2.6 Z IKBKB (IKK beta) Km app -0.6 Z PDGFRA (PDGFR alpha) Km app -6.8 Z
RAF1 (cRAF) Y340D Y341D 100 7.9 Z DYRK3 Km app 2.6 Z CAMK2A (CaMKII alpha) Km app -0.6 Z NEK9 Km app -7.2 Z
PI4KA (PI4K alpha) 10 7.8 A CSNK1D (CK1 delta) Km app 2.6 Z PRKCB1 (PKC beta I) Km app -0.7 Z PDK1 Km app -7.3 Z
HIPK2 Km app 7.8 Z ACVR2A n/a 2.5 L TTK n/a -0.7 L RPS6KB1 (p70S6K) Km app -7.8 Z […]

T1 sequence (P10721 26-976 N822K): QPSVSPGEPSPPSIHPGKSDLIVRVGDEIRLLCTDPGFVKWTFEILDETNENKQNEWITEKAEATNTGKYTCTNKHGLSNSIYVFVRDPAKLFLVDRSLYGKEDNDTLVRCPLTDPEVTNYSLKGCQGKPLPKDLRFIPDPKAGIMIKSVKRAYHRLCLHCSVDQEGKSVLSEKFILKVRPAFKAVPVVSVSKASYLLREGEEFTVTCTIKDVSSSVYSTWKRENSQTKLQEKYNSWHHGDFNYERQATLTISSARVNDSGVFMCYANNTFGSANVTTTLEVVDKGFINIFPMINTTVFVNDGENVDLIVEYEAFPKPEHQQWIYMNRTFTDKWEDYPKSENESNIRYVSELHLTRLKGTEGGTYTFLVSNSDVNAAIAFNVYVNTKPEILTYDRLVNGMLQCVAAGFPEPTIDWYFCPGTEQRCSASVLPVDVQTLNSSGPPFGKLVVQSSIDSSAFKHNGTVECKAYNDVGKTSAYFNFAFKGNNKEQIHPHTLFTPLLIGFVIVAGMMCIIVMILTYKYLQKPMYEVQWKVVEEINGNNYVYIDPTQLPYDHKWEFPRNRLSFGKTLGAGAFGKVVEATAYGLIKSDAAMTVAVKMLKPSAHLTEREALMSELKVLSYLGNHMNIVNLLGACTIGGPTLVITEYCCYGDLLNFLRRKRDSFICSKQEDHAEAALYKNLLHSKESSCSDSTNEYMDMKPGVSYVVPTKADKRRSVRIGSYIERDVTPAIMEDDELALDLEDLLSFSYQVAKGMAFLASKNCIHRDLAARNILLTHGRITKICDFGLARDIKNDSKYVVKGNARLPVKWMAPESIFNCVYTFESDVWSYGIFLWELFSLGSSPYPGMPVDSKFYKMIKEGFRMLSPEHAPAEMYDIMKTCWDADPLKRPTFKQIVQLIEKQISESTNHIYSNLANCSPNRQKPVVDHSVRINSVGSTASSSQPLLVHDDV

On to `CN(C(=O)CN1CCOCC1)c1ccc2sc3c(-c4cccc5c(=O)cc(N6CC7CCC(C6)O7)oc45)cccc3c2c1` [NU5455], for which the inhibition at 1 µM is -0.2%.
